# Test results published in US20250145571A1, “AMINO ACID PRODRUGS OF NICORANDIL” (Unicycive Therapeutics, Inc., priority 2023, published 2025).
# Read-outs that look alike come from different tables or passages of the source.
# Tests used:
# [1] = Liver microsomal stability, human; assay type: in vitro ADME; settings: for Hepatic Extraction Ratio / Predicted Hepatic CL: human liver microsomes 0.5 mg/mL, 1 μM, NADPH
# Protocol: (§1) Each test compound and assay control (final concentration of 1 μM) were incubated with liver microsomes (final protein concentration of 0.5 mg/mL) from rats, dogs or humans at 37° C. in the presence of NADPH for 0.5, 5, 10, 15, 30 and 60 min. The reaction was terminated by adding ice-cold acetonitrile containing internal standard at each time point following incubation. The samples were then centrifuged at 4000 rpm for 10 minutes and the supernatant was analyzed by LC-MS/MS. The predicted hepatic clearance and the hepatic extraction ratio were calculated for the test compounds and the assay control.
# [2] = rat; for AUClast / Cmax / F (%) / Tmax / t1/2 / AUClast (ng * h/mL) / Cmax (ng/mL) / Median Tmax: male, Sprague-Dawley; for AUClast / Cmax / F (%) / Tmax / t1/2 / AUClast (ng * h/mL) / Cmax (ng/mL) / Median Tmax / increase in AUC from 3 mg/kg to 14 mg/kg (in words) / release of nicorandil in vivo (in words): po
# [3] = Plasma stability, human plasma; assay type: in vitro ADME; settings: for half-life at 1 µM / % PCR (at 60 minutes): 37° C., 1 μM; for % PCR (at 60 minutes): parent compound remaining at 60 minutes
# Protocol: (§2) Each test compound and assay control (final concentration of 1 μM) were incubated with human plasma or rat plasma at 37° C. for 0.5, 5, 30 and 60 minutes. The reaction was quenched with ice-cold acetonitrile containing internal standard (cetirizine/tolbutamide/telmisartan) following incubation.
# [4] = Plasma stability, rat plasma; assay type: in vitro ADME; settings: for half-life at 1 µM / % PCR (at 60 minutes): 37° C., 1 μM; for % PCR (at 60 minutes): parent compound remaining at 60 minutes
# Protocol: as §2
# [5] = Liver microsomal stability, dog; assay type: in vitro ADME; settings: for Hepatic Extraction Ratio / Predicted Hepatic CL: dog liver microsomes 0.5 mg/mL, 1 μM, NADPH
# Protocol: as §1
# [6] = Intestinal microsomal stability, dog; assay type: in vitro ADME; settings: for half-life at 1 µM / microsomal CLint at 1 µM: dog intestinal microsomes 1 mg/mL protein, NADPH, 37° C.; for microsomal CLint at 1 µM: read-out: CLint (μL/min/mg protein)
# Protocol: (§3) Each test compound and assay control (final concentration of […]) were incubated with intestinal microsomes (final protein concentration of 1 mg/mL) from rats, dogs or humans at 37° C. in the presence of NADPH for 0.5, 5, 10, 15, 30 and 60 minutes. The reaction was terminated by adding ice-cold acetonitrile containing internal standard (cetirizine/tolbutamide/telmisartan) at each time point following incubation. Samples were then centrifuged at 4000 rpm for 10 minutes and the supernatant was analyzed by LC-MS/MS. The in vitro half-life (t1/2) and intrinsic clearance (CLint) were calculated for the test compounds and the assay control.
# [7] = Liver microsomal stability, rat; assay type: in vitro ADME; settings: for Hepatic Extraction Ratio / Predicted Hepatic CL: rat liver microsomes 0.5 mg/mL, 1 μM, NADPH
# Protocol: as §1
# [8] = Intestinal microsomal stability, human; assay type: in vitro ADME; settings: for half-life at 1 µM / microsomal CLint at 1 µM: human intestinal microsomes 1 mg/mL protein, NADPH, 37° C.; for microsomal CLint at 1 µM: read-out: CLint (μL/min/mg protein)
# Protocol: as §3
# [9] = Intestinal microsomal stability, rat; assay type: in vitro ADME; settings: for half-life at 1 µM / microsomal CLint at 1 µM: rat intestinal microsomes 1 mg/mL protein, NADPH, 37° C.; for microsomal CLint at 1 µM: read-out: CLint (μL/min/mg protein)
# Protocol: as §3
# [10] = Pharmacokinetic study in rats, single oral dose; settings: rat, 0.25% sodium CMC
# [11] = compared to nitrate salt of compound 8
structure (smiles),measurement,setting,value
CCCCCCCCCCCC(=O)OC[n+]1cccc(C(=O)NCCO[N+](=O)[O-])c1.[Cl-] [Compound 10],Hepatic Extraction Ratio,[1],0.90
same,Predicted Hepatic CL,[1],19 mL/min/kg
same,stability in liver microsomes (in words),"[1]; human liver microsomes, compared to nitrate salt of compound 8",unstable
same,AUClast,"[2]; in vivo, 3 mg/kg",5513 ng·h/mL
same,Cmax,"[2]; in vivo, 3 mg/kg",2226 ng/mL
same,F (%),"[2]; in vivo, 3 mg/kg",67%
same,Tmax,"[2]; in vivo, 3 mg/kg",30 min
same,t1/2,"[2]; in vivo, 3 mg/kg",4.07 h
same,AUClast (ng * h/mL),"[2]; in vivo, 3 mg/kg, pH 4.5","26,838 ng * h/mL"
same,Cmax (ng/mL),"[2]; in vivo, 3 mg/kg, pH 4.5","12,446 ng/mL"
same,Median Tmax,"[2]; in vivo, 3 mg/kg, pH 4.5",15 min
same,AUClast (ng * h/mL),"[2]; in vivo, 14 mg/kg","36,526 ng * h/mL"
same,Cmax,"[2]; in vivo, 14 mg/kg",6297 ng/mL
same,F (%),"[2]; in vivo, 14 mg/kg",97%
same,Tmax,"[2]; in vivo, 14 mg/kg",240 min
same,t1/2,"[2]; in vivo, 14 mg/kg",2.74 h
same,oral bioavailability of nicorandil after oral dosing (in words),[2]; in vivo,high
same,increase in AUC from 3 mg/kg to 14 mg/kg (in words),[2]; in vivo,more than dose proportional
same,release of nicorandil in vivo (in words),[2],release nicorandil in vivo
same,half-life at 1 µM,[3],1.23 min
same,% PCR (at 60 minutes),[3],0%
same,release in plasma (in words),[3]; [11],rapidly released
same,half-life at 1 µM,[4],1.59 min
same,% PCR (at 60 minutes),[4],0%
same,release in plasma (in words),[4]; [11],rapidly released
same,Hepatic Extraction Ratio,[5],1.0
same,Predicted Hepatic CL,[5],4 mL/min/kg
same,stability in liver microsomes (in words),"[5]; dog liver microsomes, compared to nitrate salt of compound 8",unstable
same,half-life at 1 µM,[6],47 min
same,microsomal CLint at 1 µM,[6],15 µL/min/mg
same,clearance in intestinal microsomes (in words),"[6]; dog intestinal microsomes, compared to nitrate salt of compound 8 and compounds 11 and 13",high clearance
same,Hepatic Extraction Ratio,[7],0.84
same,Predicted Hepatic CL,[7],46 mL/min/kg
same,stability in liver microsomes (in words),"[7]; rat liver microsomes, compared to nitrate salt of compound 8",unstable
same,half-life at 1 µM,[8],24 min
same,microsomal CLint at 1 µM,[8],29 µL/min/mg
same,clearance in intestinal microsomes (in words),"[8]; human intestinal microsomes, compared to nitrate salt of compound 8 and compounds 11 and 13",high clearance
same,half-life at 1 µM,[9],26 min
same,microsomal CLint at 1 µM,[9],27 µL/min/mg
same,clearance in intestinal microsomes (in words),"[9]; rat intestinal microsomes, compared to nitrate salt of compound 8 and compounds 11 and 13",high clearance
CCC(C)(C)C(=O)OC[n+]1cccc(C(=O)NCCO[N+](=O)[O-])c1.[Cl-] [Compound 11],AUClast,"[2]; in vivo, 3 mg/kg",2289 ng·h/mL
same,Cmax,"[2]; in vivo, 3 mg/kg",1171 ng/mL
same,F (%),"[2]; in vivo, 3 mg/kg",28%
same,Tmax,"[2]; in vivo, 3 mg/kg",15 min
same,AUClast (ng * h/mL),"[2]; in vivo, 3 mg/kg, pH 4.5","22,632 ng * h/mL"
same,Cmax (ng/mL),"[2]; in vivo, 3 mg/kg, pH 4.5","15,223 ng/mL"
same,Median Tmax,"[2]; in vivo, 3 mg/kg, pH 4.5",15 min
same,AUClast,"[2]; in vivo, 14 mg/kg",27422 ng·h/mL
same,Cmax,"[2]; in vivo, 14 mg/kg",6245 ng/mL
same,F (%),"[2]; in vivo, 14 mg/kg",72%
same,Tmax,"[2]; in vivo, 14 mg/kg",15 min
same,increase in AUC from 3 mg/kg to 14 mg/kg (in words),[2]; in vivo,more than dose proportional
same,release of nicorandil in vivo (in words),[2],release nicorandil in vivo
same,half-life at 1 µM,[6],> 60 min
same,microsomal CLint at 1 µM,[6],9 µL/min/mg
same,half-life at 1 µM,[8],> 60 min
same,microsomal CLint at 1 µM,[8],< 6 µL/min/mg
same,half-life at 1 µM,[9],> 60 min
same,microsomal CLint at 1 µM,[9],8 µL/min/mg
Cc1oc(=O)oc1C[n+]1cccc(C(=O)NCCO[N+](=O)[O-])c1.[Cl-] [Compound 12],AUClast,"[2]; in vivo, 3 mg/kg, pH 4.5",8893 ng·h/mL
same,Cmax,"[2]; in vivo, 3 mg/kg, pH 4.5",4065 ng/mL
same,Median Tmax,"[2]; in vivo, 3 mg/kg, pH 4.5",30 min
O=C(NCCO[N+](=O)[O-])c1ccc[n+](COC(=O)N2CCCC2C(=O)O)c1.[Cl-] (stereo not drawn) [Compound 13],half-life at 1 µM,[6],> 60 min
same,microsomal CLint at 1 µM,[6],< 6 µL/min/mg
same,half-life at 1 µM,[8],> 60 min
same,microsomal CLint at 1 µM,[8],< 6 µL/min/mg
same,half-life at 1 µM,[9],> 60 min
same,microsomal CLint at 1 µM,[9],< 6 µL/min/mg
CCOC(=O)[C@H](CCc1ccccc1)N[C@@H](C)C(=O)N1CCC[C@H]1C(=O)O [Enalapril],half-life at 1 µM,[4],18.9 min
same,% PCR (at 60 minutes),[4],11.2%
O=C(NCCO[N+](=O)[O-])c1cccnc1 [Nicorandil],half-life at 1 µM,[3],> 60 min
same,% PCR (at 60 minutes),[3],109%
same,half-life at 1 µM,[4],> 60 min
same,% PCR (at 60 minutes),[4],114%
CC(C)[N+](C)(CCOC(=O)C1c2ccccc2Oc2ccccc21)C(C)C [Propantheline Bromide],half-life at 1 µM,[3],21.3 min
same,% PCR (at 60 minutes),[3],9.2%
C[C@H](NC(=O)OC[n+]1cccc(C(=O)NCCO[N+](=O)[O-])c1)C1CCCCC1.O=[N+]([O-])[O-] [reference compound],Hepatic Extraction Ratio,[1],0.71
same,Predicted Hepatic CL,[1],15 mL/min/kg
same,release of nicorandil in vivo (in words),[10],release nicorandil in vivo
same,half-life at 1 µM,[3],31.2 min
same,% PCR (at 60 minutes),[3],28.7%
same,half-life at 1 µM,[4],38.2 min
same,% PCR (at 60 minutes),[4],36.2%
same,Hepatic Extraction Ratio,[5],0.84
same,Predicted Hepatic CL,[5],26 mL/min/kg
same,half-life at 1 µM,[6],> 60 min
same,microsomal CLint at 1 µM,[6],< 6 µL/min/mg
same,Hepatic Extraction Ratio,[7],> 0.89
same,Predicted Hepatic CL,[7],> 49 mL/min/kg
same,half-life at 1 µM,[8],> 60 min
same,microsomal CLint at 1 µM,[8],9 µL/min/mg
same,half-life at 1 µM,[9],> 60 min
same,microsomal CLint at 1 µM,[9],< 6 µL/min/mg
